# Values quoted from earlier work, collected in paper PMC6843717 (ACS Omega, 2019).
# Settings: Rac inhibitor, plasma; cited from earlier work
structure (smiles),measurement,value
O=c1cc(CN2CCOCC2)occ1OCCCCCSc1ccnc2cc(C(F)(F)F)ccc12 [EHT1864],T1/2,1.65 h
